Data published in patent publication US20220340899A1, “STEREOSELECTIVE PH RESPONSIVE PEPTIDE DENDRIMERS FOR NUCLEIC ACID TRANSFECTION” (UNIVERSITÄT BERN, priority 2019, published 2022).

What was measured:
[1] = test system: HT-1080, PC-3, MCF-7, SH-SY5Y and Caco-2 cell lines; assay: siRNA transfection, GAPDH knock-down in five additional cell lines; assay type: cell-based; details: including SH-SY5Y and Caco-2
Description: siRNA Transfection and Protein Quantitation: HeLa, CHO, PC3, SH-SY5Y, Caco-2 and MCF-7 cells were seeded in TPP 96-well plates (Faust Laborbedarf AG, Schaffhausen) at 5×10^3 cells per well the day before transfection. The 96-well plates were coated with poly-L-Lysine (Sigma aldrich, Buchs, CH) for 1 h and dried under a flow of air in the fumehood at RT before plating HEK-293 and HT-1080 at 5×10^3 cells per well the day before transfection. Cells were always used in their exponential phase for transfection and with a number of passages between 3 to 20. The siRNA transfection complexes were formed in OptiMEM by mixing siRNA (1-20 μmol, 0.02-0.4 μL from a 50 μM Milli-Q water solution in 6.25 μL OptiMEM) with peptide dendrimers (N/P ratio of 1-100, 21-420 μmol, 0.1-3.5 μl from a 1 mg/mL Milli-Q water solution in 6.25 μL OptiMEM) or L2000 (w/w ratio of 0.5:1-2:1, 0.0665-0.266 μg, 0.0665-0.266 μL from the 1 mg/mL commercial solution in 6.25 μL OptiMEM) at room temperature for 30 minutes (12.5 μL, concentration of 80-1600 nM siRNA and 1.68-33.6 μM i.e. 12-240 μg/mL peptide dendrimers or 5.32-21.28 μg/mL L2000). […] Briefly, medium was removed, cells were lysed with 200 μL cold lysis buffer, 2-10 μL of lysis buffer from each well was taken to a new 96 well plate containing 90 μL Master Mix and fluorescence measured at λex=560 nm and λem=590 nm on a Tecan Infinite M1000 Pro plate reader.

cells = assay: Cell viability by AlamarBlue assay after transfection; assay type: cell-based; details: in transfection experiments
Description: Cell Viability by AlamarBlue® Assay: Cells were transfected in TPP 96-well plates as previously described. Following transfections, the medium was removed and replaced with 10% AlamarBlue® (Thermo Fisher Scientific, Reinach, CH) in DMEM supplemented with 10% FCS. Cells were incubated for 4-24 h at 37° C. in a humidified atmosphere in 5% carbon dioxide. Then, plates were measured on a Tecan Infinite M1000 Pro plate reader at λex=560 nm and λem=590 nm and value normalized to the one of untreated cells.

Row | Substance | GADPH knock-down in five additional cell lines [1] | cell toxicity / cell viability (cells)
1 | (kl)8(kkl)4(kll)2kk(C16)k(C16) [DMH13] | effectively transfected all five cell lines | without significant toxicity to cells
2 | (kl)8(kkl)4(kll)2kllll [DMH18] | effectively transfected all five cell lines | without significant toxicity to cells
